In patent US11034650B2, “Compounds useful for treating a Mannheimia haemolytica or Histophilus somni infection” (Intervet Inc., priority 2016, dated 2021):
≈ marks a conversion by molar mass, not a printed value.

How the values were obtained:
Assay type in all cases: cell-based
[1] = test system: Pasteurella multocida PM 10775 (080130003051, BRD field isolate); assay: MIC, broth-microdilution (CLSI VET01-A4), strain PM 10775; conditions: Pasteurella multocida strain PM 10775, broth-microdilution; unit assumed
Outline: (§1)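 Visual endpoint: the first dilution of a doubling series lacking turbidity gives the MIC; CLSI VET01-S3 interpretive rules applied.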

[2] = test system: Pasteurella multocida PM 6391 (ATCC 43137, reference strain); assay: MIC, broth-microdilution (CLSI VET01-A4), strain PM 6391; conditions: Pasteurella multocida strain PM 6391, broth-microdilution; unit assumed
Outline: as §1

[3] = test system: Pasteurella multocida PM 6267 (P 2225 (L386), reference strain, mouse infection strain); assay: MIC, broth-microdilution (CLSI VET01-A4), strain PM 6267; conditions: Pasteurella multocida strain PM 6267, broth-microdilution; unit assumed
Outline: as §1

[4] = test system: Pasteurella multocida PM 12080 (IV102277-0093, BRD field isolate); assay: MIC, broth-microdilution (CLSI VET01-A4), strain PM 12080; conditions: Pasteurella multocida strain PM 12080, broth-microdilution; unit assumed
Outline: as §1

[5] = test system: Mannheimia haemolytica MH 6357 (M7/2, reference strain, cattle infection strain); assay: MIC, broth-microdilution (CLSI VET01-A4), strain MH 6357; conditions: Mannheimia haemolytica strain MH 6357, broth-microdilution; unit assumed
Outline: as §1

[6] = test system: Mannheimia haemolytica MH 13093 (XB0472-6014.1, BRD field isolate); assay: MIC, broth-microdilution (CLSI VET01-A4), strain MH 13093; conditions: Mannheimia haemolytica strain MH 13093, broth-microdilution; unit assumed
Outline: as §1

[7] = test system: Mannheimia haemolytica MH 10720 (154, BRD field isolate); assay: MIC, broth-microdilution (CLSI VET01-A4), strain MH 10720; conditions: Mannheimia haemolytica strain MH 10720, broth-microdilution; unit assumed
Outline: as §1

[8] = test system: Mannheimia haemolytica MH 6374 (ATCC 33396, reference strain); assay: MIC, broth-microdilution (CLSI VET01-A4), strain MH 6374; conditions: Mannheimia haemolytica strain MH 6374, broth-microdilution; unit assumed
Outline: as §1

[9] = test system: Mannheimia haemolytica MH 13065 (XB0446-6003.9, BRD field isolate); assay: MIC, broth-microdilution (CLSI VET01-A4), strain MH 13065; conditions: Mannheimia haemolytica strain MH 13065, broth-microdilution; unit assumed
Outline: as §1

[10] = test system: Mannheimia haemolytica MH 12587 (1071, BRD field isolate, macrolide-resistance: erm+, E+); assay: MIC, broth-microdilution (CLSI VET01-A4), strain MH 12587; conditions: Mannheimia haemolytica strain MH 12587, broth-microdilution; unit assumed
Outline: as §1

Row | SMILES | MIC PM 10775 [1] [µg/mL] | MIC PM 6391 [2] [µg/mL] | MIC PM 6267 [3] [µg/mL] | MIC PM 12080 [4] [µg/mL] | MIC MH 6357 [5] [µg/mL] | MIC MH 13093 [6] [µg/mL] | MIC MH 10720 [7] [µg/mL] | MIC MH 6374 [8] [µg/mL] | MIC MH 13065 [9] [µg/mL] | MIC MH 12587 [10] [µg/mL]
1 | CC(=O)C(NC(=O)c1ccc(C#Cc2ccc(CNCc3nccs3)cc2)cc1)C(=O)NO (stereo not drawn) [Compound 414] | 0.4 (≈ 0.865 µM) | ≤ 0.1 | 6.3 (≈ 13.6 µM) | ≤ 0.1 | 0.8 (≈ 1.73 µM) | 1.6 (≈ 3.46 µM) | 0.8 (≈ 1.73 µM) | 1.6 (≈ 3.46 µM) | 0.8 (≈ 1.73 µM) | 0.4 (≈ 0.865 µM)
2 | CC(C)([C@H](NC(=O)c1ccc(C#Cc2ccc(CNCc3ccccn3)nc2)cc1)C(=O)NO)S(C)(=O)=O [Compound 353] | 0.4 (≈ 0.747 µM) | 1.6 (≈ 2.99 µM) | 3.1 (≈ 5.79 µM) | 0.8 (≈ 1.49 µM) | 3.1 (≈ 5.79 µM) | 6.3 (≈ 11.8 µM) | 0.8 (≈ 1.49 µM) | 6.3 (≈ 11.8 µM) | 6.3 (≈ 11.8 µM) | 12.5 (≈ 23.3 µM)
3 | CC(C)(O)[C@H](NC(=O)c1ccc(C#Cc2ccc(CNCc3ccncc3)nc2)cc1)C(=O)NO [Compound 329] | ≤ 0.1 | 0.4 (≈ 0.845 µM) | 0.8 (≈ 1.69 µM) | 0.4 (≈ 0.845 µM) | 0.8 (≈ 1.69 µM) | 1.6 (≈ 3.38 µM) | ≤ 0.1 | 1.6 (≈ 3.38 µM) | 0.8 (≈ 1.69 µM) | 3.1 (≈ 6.55 µM)
4 | CC(C)([C@H](NC(=O)c1ccc(C#Cc2ccc(CNCC#N)nc2)cc1)C(=O)NO)S(C)(=O)=O [Compound 372] | 0.4 (≈ 0.827 µM) | 1.6 (≈ 3.31 µM) | 1.6 (≈ 3.31 µM) | 0.8 (≈ 1.65 µM) | 6.3 (≈ 13 µM) | 25 (≈ 51.7 µM) | 3.1 (≈ 6.41 µM) | 12.5 (≈ 25.9 µM) | 12.5 (≈ 25.9 µM) | 25 (≈ 51.7 µM)
5 | CC(=O)C(NC(=O)c1ccc(C#Cc2ccc(CNCc3ccccc3)cc2)cc1)C(=O)NO (stereo not drawn) [Compound 400] | 0.8 (≈ 1.76 µM) | ≤ 0.1 | 3.1 (≈ 6.81 µM) | 0.4 (≈ 0.878 µM) | 0.8 (≈ 1.76 µM) | 1.6 (≈ 3.51 µM) | 1.6 (≈ 3.51 µM) | 1.6 (≈ 3.51 µM) | 1.6 (≈ 3.51 µM) | 0.2 (≈ 0.439 µM)
6 | CC(C)([C@H](NC(=O)c1ccc(C#Cc2ccc(CNCc3ncccn3)nc2)cc1)C(=O)NO)S(C)(=O)=O [Compound 356] | 0.2 (≈ 0.373 µM) | 3.1 (≈ 5.78 µM) | 6.3 (≈ 11.7 µM) | 1.6 (≈ 2.98 µM) | 6.3 (≈ 11.7 µM) | 12.5 (≈ 23.3 µM) | 3.1 (≈ 5.78 µM) | 6.3 (≈ 11.7 µM) | 6.3 (≈ 11.7 µM) | 12.5 (≈ 23.3 µM)
7 | CSC(C)(C)[C@H](NC(=O)c1ccc(C#Cc2ccc(CNC3CC3)s2)cc1)C(=O)NO [Compound 300] | ≤ 0.1 | ≤ 0.1 | 0.4 (≈ 0.874 µM) | 0.4 (≈ 0.874 µM) | 0.4 (≈ 0.874 µM) | 0.8 (≈ 1.75 µM) | ≤ 0.1 | 0.8 (≈ 1.75 µM) | 0.4 (≈ 0.874 µM) | 0.8 (≈ 1.75 µM)
8 | COCCNCc1ccc(C#Cc2ccc(C(=O)N[C@H](C(=O)NO)C(C)(C)SC)cc2)cn1 [Compound 337] | 0.2 (≈ 0.425 µM) | 1.6 (≈ 3.4 µM) | 3.1 (≈ 6.59 µM) | 0.8 (≈ 1.7 µM) | 3.1 (≈ 6.59 µM) | 3.1 (≈ 6.59 µM) | 0.8 (≈ 1.7 µM) | 3.1 (≈ 6.59 µM) | 6.3 (≈ 13.4 µM) | 6.3 (≈ 13.4 µM)
9 | CC(C)(C(NC(=O)c1ccc(C#Cc2ccc(CNCc3cccnc3)cc2)cc1)C(=O)NO)[N+](=O)[O-] (stereo not drawn) [Compound 286] | ≤ 0.1 | 0.8 (≈ 1.6 µM) | 0.8 (≈ 1.6 µM) | ≤ 0.1 | 0.4 (≈ 0.798 µM) | 0.8 (≈ 1.6 µM) | ≤ 0.1 | 0.8 (≈ 1.6 µM) | 0.4 (≈ 0.798 µM) | 1.6 (≈ 3.19 µM)
10 | CC(C)(C(NC(=O)c1ccc(C#Cc2ccc(CNCc3ccco3)cc2)cc1)C(=O)NO)[N+](=O)[O-] (stereo not drawn) [Compound 287] | ≤ 0.1 | 0.4 (≈ 0.815 µM) | 0.8 (≈ 1.63 µM) | ≤ 0.1 | 0.4 (≈ 0.815 µM) | 0.8 (≈ 1.63 µM) | ≤ 0.1 | 0.8 (≈ 1.63 µM) | 0.8 (≈ 1.63 µM) | 1.6 (≈ 3.26 µM)
11 | Cc1cnc(CNCc2ccc(C#Cc3ccc(C(=O)N[C@H](C(=O)NO)C(C)(C)O)cc3)cn2)o1 [Compound 334] | ≤ 0.1 | 0.4 (≈ 0.838 µM) | 0.4 (≈ 0.838 µM) | 0.2 (≈ 0.419 µM) | 0.4 (≈ 0.838 µM) | 1.6 (≈ 3.35 µM) | ≤ 0.1 | 0.4 (≈ 0.838 µM) | 0.8 (≈ 1.68 µM) | 1.6 (≈ 3.35 µM)
12 | CC(C)([C@H](NC(=O)c1ccc(C#Cc2ccc(CNCc3ccco3)nc2)cc1)C(=O)NO)S(C)(=O)=O [Compound 354] | ≤ 0.1 | 0.4 (≈ 0.762 µM) | 0.8 (≈ 1.52 µM) | 0.2 (≈ 0.381 µM) | 0.4 (≈ 0.762 µM) | 0.8 (≈ 1.52 µM) | 0.2 (≈ 0.381 µM) | 0.8 (≈ 1.52 µM) | 1.6 (≈ 3.05 µM) | 1.6 (≈ 3.05 µM)
13 | CSC(C)(C)[C@H](NC(=O)c1ccc(C#Cc2ccc(CNCc3ccncc3)cc2)cc1)C(=O)NO [Compound 241] | ≤ 0.1 | ≤ 0.1 | ≤ 0.1 | ≤ 0.1 | 0.4 (≈ 0.796 µM) | 0.4 (≈ 0.796 µM) | ≤ 0.1 | 0.8 (≈ 1.59 µM) | 0.4 (≈ 0.796 µM) | 0.8 (≈ 1.59 µM)

Now from value to compound, other results behind:

Row | MIC PM 10775 [1] [µg/mL] | MIC PM 6391 [2] [µg/mL] | MIC PM 6267 [3] [µg/mL] | MIC PM 12080 [4] [µg/mL] | SMILES | MIC MH 6357 [5] [µg/mL] | MIC MH 13093 [6] [µg/mL] | MIC MH 10720 [7] [µg/mL] | MIC MH 6374 [8] [µg/mL] | MIC MH 13065 [9] [µg/mL] | MIC MH 12587 [10] [µg/mL]
14 | ≤ 0.1 | 1.6 (≈ 3.67 µM) | 0.8 (≈ 1.83 µM) | ≤ 0.1 | CN1CCN(Cc2ccc(C#Cc3ccc(C(=O)N[C@@H](CO)C(=O)NO)cc3)cc2)CC1 [Compound 146] | 6.3 (≈ 14.4 µM) | 25 (≈ 57.3 µM) | 1.6 (≈ 3.67 µM) | 25 (≈ 57.3 µM) | 12.5 (≈ 28.6 µM) | 25 (≈ 57.3 µM)
15 | ≤ 0.1 | 0.4 (≈ 0.888 µM) | ≤ 0.1 | 0.2 (≈ 0.444 µM) | O=C(N[C@@H](CO)C(=O)NO)c1ccc(C#Cc2ccc(CNCc3nccs3)cc2)cc1 [Compound 213] | 1.6 (≈ 3.55 µM) | 3.1 (≈ 6.88 µM) | 0.8 (≈ 1.78 µM) | 1.6 (≈ 3.55 µM) | 1.6 (≈ 3.55 µM) | 3.1 (≈ 6.88 µM)
16 | ≤ 0.1 | 0.8 (≈ 1.8 µM) | 0.4 (≈ 0.9 µM) | 0.8 (≈ 1.8 µM) | O=C(N[C@@H](CO)C(=O)NO)c1ccc(C#Cc2ccc(CNCc3cccnc3)cc2)cc1 [Compound 157] | 1.6 (≈ 3.6 µM) | 6.3 (≈ 14.2 µM) | 0.8 (≈ 1.8 µM) | 1.6 (≈ 3.6 µM) | 3.1 (≈ 6.97 µM) | 6.3 (≈ 14.2 µM)
17 | 3.1 (≈ 7.32 µM) | 0.2 (≈ 0.472 µM) | 25 (≈ 59 µM) | 1.6 (≈ 3.78 µM) | COCCNCc1ccc(C#Cc2ccc(C(=O)N[C@@H](C(C)=O)C(=O)NO)cc2)cc1 [Compound 398] | 6.3 (≈ 14.9 µM) | 25 (≈ 59 µM) | 6.3 (≈ 14.9 µM) | 6.3 (≈ 14.9 µM) | 12.5 (≈ 29.5 µM) | 1.6 (≈ 3.78 µM)
18 | ≤ 0.1 | 1.6 (≈ 4.71 µM) | 0.8 (≈ 2.36 µM) | 1.6 (≈ 4.71 µM) | Nc1ccc(C#Cc2ccc(C(=O)N[C@@H](CO)C(=O)NO)cc2)cc1 [Compound 376, 4-[2-(4-aminophenyl)ethynyl]-N-[(1S)-2-(hydroxyamino)-1-(hydroxymethyl)-2-oxo-ethyl]benzamide] | 1.6 (≈ 4.71 µM) | 6.3 (≈ 18.6 µM) | 0.8 (≈ 2.36 µM) | 3.1 (≈ 9.14 µM) | 3.1 (≈ 9.14 µM) | 6.3 (≈ 18.6 µM)
19 | ≤ 0.1 | 0.8 (≈ 1.73 µM) | 0.2 (≈ 0.433 µM) | 0.4 (≈ 0.867 µM) | CC[C@H](C)[C@H](NC(=O)c1ccc(C#Cc2ccc(CNC3CCCCC3)cc2)cc1)C(=O)NO [Compound 195] | 6.3 (≈ 13.6 µM) | 12.5 (≈ 27.1 µM) | 1.6 (≈ 3.47 µM) | 12.5 (≈ 27.1 µM) | 6.3 (≈ 13.6 µM) | 12.5 (≈ 27.1 µM)
20 | ≤ 0.1 | 0.4 (≈ 0.91 µM) | ≤ 0.1 | 0.4 (≈ 0.91 µM) | COCCNCc1ccc(C#Cc2ccc(C(=O)N[C@H](C(=O)NO)C(C)(C)O)cc2)cc1 [Compound 221] | 0.8 (≈ 1.82 µM) | 1.6 (≈ 3.64 µM) | ≤ 0.1 | 0.8 (≈ 1.82 µM) | 1.6 (≈ 3.64 µM) | 3.1 (≈ 7.05 µM)
21 | 1.6 (≈ 3.46 µM) | 0.4 (≈ 0.865 µM) | 50 (≈ 108 µM) | 0.4 (≈ 0.865 µM) | CON=C(C)[C@H](NC(=O)c1ccc(C#Cc2ccc(CNC3CCCC3)cc2)cc1)C(=O)NO [Compound 386] | 12.5 (≈ 27 µM) | 12.5 (≈ 27 µM) | 1.6 (≈ 3.46 µM) | 12.5 (≈ 27 µM) | 12.5 (≈ 27 µM) | 1.6 (≈ 3.46 µM)
